36 molecules from US20260166039A1 (SCHRÖDINGER, INC., priority 2022, published 2026) can be followed below.

One test addresses T1, Wee1 kinase domain (Homo sapiens, UniProt P30291).
T1 construct: Wee1 kinase domain was purchased from Carna (catalog #05-177); purchased Carna 05-177
As to the kind of experiment: Wee1 Kinase Biochemical Assay (ADP-Glo). Conditions: class symbols; 1 nM Wee1 enzyme, 15 uM ATP, 4 hours at 25° C. The method in brief: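 ADP-Glo detection of ADP produced after 4 h at 25° C by 1 nM Wee1 kinase domain on 2 ng/mL poly(Lys,Tyr 4:1) with 15 uM ATP. Buffer: 40 mM Tris-HCl, 20 mM MgCl2, 0.1 mg/mL BSA, 2 mM DTT. Inhibition is relative to DMSO (high) and saturating Wee1 inhibitor (low) controls.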
A general note: In ADP-Glo the light output rises with the ADP produced.

The subject of test [1] is phosphorylation of Cdc2 Y15 (Wee1 substrate) in A427 cells. The experiment in a line: Phosphorylated Cdc2 MSD Electrochemiluminescence Assay. It counts as cell-based. Particulars: Homo sapiens, A-427, class symbols, read-out: A427 pCDC2 MSD IC50. The method in brief:
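Read-out: percent residual phospho-Cdc2 Y15 relative to DMSO and positive-control Wee1 inhibitor, measured by MSD electrochemiluminescence capture/detection antibody assay in cell lysates. A427 cells received duplicate 3-fold compound dilution series 20 h post-seeding, with 6 h total incubation at 37 °C.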

T1 sequence (P30291 299-569 limits assumed): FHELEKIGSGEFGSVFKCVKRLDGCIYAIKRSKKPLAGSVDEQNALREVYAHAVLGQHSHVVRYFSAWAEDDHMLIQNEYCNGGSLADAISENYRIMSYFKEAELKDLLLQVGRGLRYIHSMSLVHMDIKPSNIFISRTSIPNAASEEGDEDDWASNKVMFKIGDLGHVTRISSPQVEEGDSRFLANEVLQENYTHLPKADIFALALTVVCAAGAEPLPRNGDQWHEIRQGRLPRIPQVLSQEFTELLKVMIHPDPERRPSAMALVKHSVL

With `CN1CCN(c2cccc(N3c4nc(Nc5ccc(N6CCOCC6)cc5)ncc4[C@@]4(C)COC(C)(C)C[C@@H]34)n2)CC1` (single isomer, unassigned) [Example 535], the IC50 at Wee1 kinase domain is < 0.01 µM; in test [1], 0.1 to 1 µM.
Taken in the same sequence, the figures for `CN[C@@H](C)c1cccc(N2c3nc(Nc4ccc(N5CCOCC5)cc4)ncc3[C@@]3(C)COC(C)(C)C[C@@H]23)n1` (single isomer, unassigned) [Example 537] were < 0.01 µM and 0.1 to 1 µM.
Taken in the same sequence, the figures for `CC1(C)C[C@H]2N(c3cccc([C@H]4CCNC4)n3)c3nc(Nc4ccc(N5CCOCC5)cc4)ncc3[C@@]2(C)CO1` (single isomer, unassigned) [Example 542] were < 0.01 µM and 0.1 to 1 µM.
On to `CNC1(c2cccc(N3c4nc(Nc5ccc(N6CCOCC6)cc5)ncc4[C@@]4(C)COC(C)(C)C[C@@H]34)n2)CC1` (single isomer, unassigned) [Example 543], for which the results for the IC50 (on Wee1 kinase domain; in test [1]) were < 0.01 µM and 0.1 to 1 µM, respectively.
Taken in the same sequence, the figures for `CC1(C)C[C@H]2N(c3cccc(C4(F)CNC4)n3)c3nc(Nc4ccc(N5CCOCC5)cc4)ncc3[C@@]2(C)CO1` (single isomer, unassigned) [Example 545] were < 0.01 µM and 0.1 to 1 µM.
With `CN[C@H](C)c1cccc(N2c3nc(Nc4ccc(N5CCOCC5)cc4)ncc3[C@@]3(C)COC(C)(C)C[C@@H]23)n1` (single isomer, unassigned) [Example 549], the IC50 was < 0.01 µM against Wee1 kinase domain and < 0.1 µM in test [1].
On to `CN[C@@H]1CCc2ccc(N3c4nc(Nc5ccc(N6CCOCC6)cc5)ncc4[C@@]4(C)COC(C)(C)C[C@@H]34)nc21` (single isomer, unassigned) [Example 553], for which the IC50 against Wee1 kinase domain is < 0.01 µM; in test [1], 0.1 to 1 µM.
Consider `CC1(C)C[C@H]2N(c3ccc4c(n3)CCNC4)c3nc(Nc4ccc(N5CCOCC5)cc4)ncc3[C@@]2(C)CO1` (single isomer, unassigned) [Example 562], for which the IC50 is < 0.01 µM on Wee1 kinase domain and 0.1 to 1 µM in test [1].
The corresponding values for `CC1(C)C[C@H]2N(c3ccc4c(n3)[C@](C)(N)CC4)c3nc(Nc4ccc(N5CCOCC5)cc4)ncc3[C@@]2(C)CO1` (single isomer, unassigned) [Example 564] are < 0.01 µM and < 0.1 µM.
The corresponding values for `CC1(C)C[C@H]2N(c3ccc4c(n3)[C@@](C)(N)CC4)c3nc(Nc4ccc(N5CCOCC5)cc4)ncc3[C@@]2(C)CO1` (single isomer, unassigned) [Example 565] are < 0.01 µM and 0.1 to 1 µM.
Taken in the same sequence, the figures for `CC1(C)C[C@H]2N(c3cccc(C(C)(C)N)n3)c3nc(Nc4ccc(N5CCOCC5)cc4)ncc3[C@@]2(C)CO1` (single isomer, unassigned) [Example 567] were < 0.01 µM and < 0.1 µM.
Consider `CN[C@]1(C)CCc2ccc(N3c4nc(Nc5ccc(N6CCOCC6)cc5)ncc4[C@@]4(C)COC(C)(C)C[C@@H]34)nc21` (single isomer, unassigned) [Example 569], for which the IC50 against Wee1 kinase domain was < 0.01 µM; in test [1], < 0.1 µM.
The corresponding values for `CNCc1cccc(N2c3nc(Nc4ccc(N5CCOCC5)cc4)ncc3[C@@]3(C)COCC[C@@H]23)n1` (single isomer, unassigned) [Example 572] are < 0.01 µM and 0.1 to 1 µM.
Taken in the same sequence, the figures for `CNC1(c2cccc(N3c4nc(Nc5ccc(C6CCN(C)CC6)c(C)c5)ncc4[C@]4(C)COC(C)(C)C[C@H]34)n2)CC1` (single isomer, unassigned) [Example 574] were 0.01 to 0.1 µM and 0.1 to 1 µM.
The corresponding values for `CNC1(c2cccc(N3c4nc(Nc5ccc(C6CCN(C)CC6)c(C)c5)ncc4[C@@]4(C)COC(C)(C)C[C@@H]34)n2)CC1` (single isomer, unassigned) [Example 575] are < 0.01 µM and < 0.1 µM.
In the case of `CN1CCN(c2ccc(Nc3ncc4c(n3)N(c3cccc(N5CCOC5=O)n3)[C@@H]3CC(C)(C)OC[C@]43C)cc2)CC1` (single isomer, unassigned) [Example 577], the IC50 against Wee1 kinase domain is < 0.01 µM; in test [1], < 0.1 µM.
Taken in the same sequence, the figures for `CN[C@@H](C)c1cccc(N2c3nc(Nc4ccc(N5C[C@H]6C[C@@H]5CO6)cc4)ncc3[C@]3(C)COC(C)(C)C[C@H]23)n1` (single isomer, unassigned) [Example 579] were < 0.01 µM and 0.1 to 1 µM.
As for `CN[C@@H](C)c1cccc(N2c3nc(Nc4ccc(N5C[C@@H]6C[C@H]5CO6)cc4)ncc3[C@@]3(C)COC(C)(C)C[C@@H]23)n1` (single isomer, unassigned) [Example 581], the IC50 is < 0.01 µM against Wee1 kinase domain and 0.1 to 1 µM in test [1].
Taken in the same sequence, the figures for `C[C@H]1CCC(=O)N1c1cccc(N2c3nc(Nc4ccc(N5CCN(C)CC5)cc4)ncc3[C@@]3(C)COC(C)(C)C[C@@H]23)n1` (single isomer, unassigned) [Example 583] were < 0.01 µM and 0.1 to 1 µM.
Taken in the same sequence, the figures for `Cc1cc(Nc2ncc3c(n2)N(c2cccc(C(=O)N(C)C)n2)[C@@H]2CC(C)(C)OC[C@]32C)ccc1C1CCN(C)CC1` (single isomer, unassigned) [Example 585] were < 0.01 µM and 0.1 to 1 µM.
Taken in the same sequence, the figures for `CN1CCN(c2ccc(Nc3ncc4c(n3)N(c3cccc(N5CCCC5=O)n3)[C@@H]3CC(C)(C)OC[C@]43C)cc2)CC1` (single isomer, unassigned) [Example 587] were < 0.01 µM and 0.1 to 1 µM.
With `C[C@@H]1COC(=O)N1c1cccc(N2c3nc(Nc4ccc(N5CCN(C)CC5)cc4)ncc3[C@@]3(C)COC(C)(C)C[C@@H]23)n1` (single isomer, unassigned) [Example 589], the IC50 against Wee1 kinase domain is < 0.01 µM; in test [1], 0.1 to 1 µM.
Taken in the same sequence, the figures for `CN1CCC(c2ccc(Nc3ncc4c(n3)N(c3cccc(N5CCOC5=O)n3)[C@@H]3CC(C)(C)OC[C@]43C)cc2)CC1` (single isomer, unassigned) [Example 591] were < 0.01 µM and 0.1 to 1 µM.
The corresponding values for `CN1C[C@H]2C[C@@H]1CN2c1ccc(Nc2ncc3c(n2)N(c2cccc(N4CCOC4=O)n2)[C@@H]2CC(C)(C)OC[C@]32C)cc1` (single isomer, unassigned) [Example 593] are < 0.01 µM and 0.1 to 1 µM.
The corresponding values for `CN1C[C@@H]2C[C@H]1CN2c1ccc(Nc2ncc3c(n2)N(c2cccc(N4CCOC4=O)n2)[C@@H]2CC(C)(C)OC[C@]32C)cc1` (single isomer, unassigned) [Example 595] are < 0.01 µM and 0.1 to 1 µM.
Take `Cc1cc(Nc2ncc3c(n2)N(c2cccc(N4CCOC4=O)n2)[C@@H]2CC(C)(C)OC[C@]32C)ccc1C1CCN(C)CC1` (single isomer, unassigned) [Example 597]: the IC50 against Wee1 kinase domain is < 0.01 µM; in test [1] it was 0.1 to 1 µM.
Taken in the same sequence, the figures for `C[C@H]1CN(c2cccc(N3c4nc(Nc5ccc(N6CCN(C)CC6)cc5)ncc4[C@@]4(C)COC(C)(C)C[C@@H]34)n2)C(=O)O1` (single isomer, unassigned) [Example 599] were < 0.01 µM and 0.1 to 1 µM.
The corresponding values for `CN1CC[C@H](c2ccc(Nc3ncc4c(n3)N(c3cccc(N5CCOC5=O)n3)[C@@H]3CC(C)(C)OC[C@]43C)cc2)C1` (single isomer, unassigned) [Example 602] are < 0.01 µM and 0.1 to 1 µM.
Taken in the same sequence, the figures for `CN1CC[C@@H](c2ccc(Nc3ncc4c(n3)N(c3cccc(N5CCOC5=O)n3)[C@@H]3CC(C)(C)OC[C@]43C)cc2)C1` (single isomer, unassigned) [Example 605] were < 0.01 µM and 0.1 to 1 µM.
For `CC1(C)C[C@H]2N(c3cccc(N4CCOC4=O)n3)c3nc(Nc4ccc([C@@H]5CCNC5)cc4)ncc3[C@@]2(C)CO1` (single isomer, unassigned) [Example 607], the IC50 on Wee1 kinase domain was < 0.01 µM; in test [1], 0.1 to 1 µM.
Taken in the same sequence, the figures for `CC1(C)C[C@H]2N(c3cccc(N4CCOC4=O)n3)c3nc(Nc4ccc([C@H]5CCNC5)cc4)ncc3[C@@]2(C)CO1` (single isomer, unassigned) [Example 608] were < 0.01 µM and 0.1 to 1 µM.
The corresponding values for `C[C@H]1COC(=O)N1c1cccc(N2c3nc(Nc4ccc(N5CCN(C)CC5)cc4)ncc3[C@@]3(C)COCC[C@@H]23)n1` (single isomer, unassigned) [Example 702] are < 0.01 µM and 0.1 to 1 µM.
The corresponding values for `CN1CC2CC1CN2c1ccc(Nc2ncc3c(n2)N(c2cccc(N=S(C)(C)=O)c2)C2CC(C)(C)OCC32C)cc1` (single isomer, unassigned) [Example 712] are < 0.01 µM and 1 to 10 µM.
In the case of `CN1CCN(c2ccc(Nc3ncc4c(n3)N(c3ccn(C)n3)[C@@H]3CC(C)(C)OC[C@]43C)cc2)CC1` (single isomer, unassigned) [Example 717], the IC50 against Wee1 kinase domain is < 0.01 µM; in test [1], 0.1 to 1 µM.
Taken in the same sequence, the figures for `CN1CCN(c2ccc(Nc3ncc4c(n3)N(c3ccn(C(F)(F)F)n3)[C@@H]3CC(C)(C)OC[C@]43C)cc2)CC1` (single isomer, unassigned) [Example 719] were < 0.01 µM and 1 to 10 µM.
Taken in the same sequence, the figures for `CN1CCN(c2ccc(Nc3ncc4c(n3)N(c3ccn(C(F)F)n3)[C@@H]3CC(C)(C)OC[C@]43C)cc2)CC1` (single isomer, unassigned) [Example 720] were < 0.01 µM and 0.1 to 1 µM.

As a reminder, the IC50 is the concentration needed to halve the response being measured.
